Experimental data: patent publication US20060216235A1, “Cancerous disease modifying antibodies” (priority 2003, published 2006)

Experiments:
MDA-MB-231 = experiment: Live/Dead cytotoxicity assay, hybridoma supernatants; details: hybridoma supernatant, 5 days
SKBR-3 = experiment: as above; details: hybridoma supernatant, 5 days
MDA-MB-468 = experiment: as above; details: hybridoma supernatant, 5 days
SW620 = details: purified antibody, 5 days; four experiments in triplicate
CCD 27sk = details: purified antibody, 5 days; four experiments in triplicate; non-cancer cells
MB-468 = test system: MB-468; design: key to the marks not given beside the values; details: purified antibody, 5 days; four experiments in triplicate
Hs888 Lu = details: purified antibody, 5 days; four experiments in triplicate; non-cancer cells
OVCAR = test system: OVCAR; design: key to the marks not given beside the values; details: purified antibody, 5 days; four experiments in triplicate
MB-231 = test system: MB-231; design: key to the marks not given beside the values; details: purified antibody, 5 days; four experiments in triplicate
MCF-7 = test system: MCF-7; design: key to the marks not given beside the values; details: purified antibody, 5 days; four experiments in triplicate
NCI H460 = test system: NCI H460; design: key to the marks not given beside the values; details: purified antibody, 5 days; four experiments in triplicate
PC-3 = test system: PC-3; design: key to the marks not given beside the values; details: purified antibody, 5 days; four experiments in triplicate
SW1116 = details: purified antibody, 5 days; four experiments in triplicate
HT-29 = test system: HT-29; design: key to the marks not given beside the values; details: purified antibody, 5 days; four experiments in triplicate

| Compound | Cytotoxicity (%) MB-231 Average (MDA-MB-231) [%] | Cytotoxicity (%) SKBR-3 Average (SKBR-3) [%] | Cytotoxicity (%) MB-468 Average (MDA-MB-468) [%] | cytotoxicity, COLON SW620 (SW620) | cytotoxicity, NORMAL CCD27sk (CCD 27sk) | cytotoxicity, BREAST MB-468 (MB-468) | cytotoxicity, NORMAL Hs888 Lu (Hs888 Lu) | cytotoxicity, OVARY OVCAR (OVCAR) | cytotoxicity, BREAST MB-231 (MB-231) | cytotoxicity, BREAST MCF-7 (MCF-7) | cytotoxicity, LUNG NCI H460 (NCI H460) | cytotoxicity, PROSTATE PC-3 (PC-3) | cytotoxicity, COLON SW1116 (SW1116) | cytotoxicity, COLON HT-29 (HT-29) |
| --- | --- | --- | --- | --- | --- | --- | --- | --- | --- | --- | --- | --- | --- | --- |
| C[C@@H]1C[C@@H]([C@H](O)CC2CC(=O)NC(=O)C2)C(=O)[C@@H](C)C1 [Cycloheximide] | 49 | 56 | 24 |  |  |  |  |  |  |  |  |  |  |  |
| [N-]=[N+]=[N-].[Na+] [NaN3] |  |  |  | − | − | +++ | − | +++ | +++ | +++ | +++ | +++ | − | +++ |
